{"source": "patent US20140148498A1", "about": "“METHODS AND COMPOSITIONS FOR THE TREATMENT OF MARFAN SYNDROME AND ASSOCIATED DISORDERS” (THE JOHNS HOPKINS UNIVERSITY, priority 2011, published 2014)", "key": {"ERK1/2": {"tested_on": "ERK1/2", "assay": "Western blot of aortic root and proximal ascending aorta: ERK1/2 activation (Examples 4-5)", "assay_type": "in vivo, mice", "text": "(§1) All mice were cared for under strict compliance with the Animal Care and Use Committee of the Johns Hopkins University School of Medicine. The Fbn1^C1039G/+ and AT2KO lines were maintained n a pure C57BL/6 background (backcrossed for greater than 9 generations), allowing for valid comparisons. In order to further accommodate the potential for temporal- or background-specified variation, all comparisons were made between contemporary littermates when possible. The AT21C0 mice were obtained as a generous gift from Dr. Inagami (T. Ichiki et al., Nature 377, 748 (1995)). The Agtr2 gene resides on the X chromosome and therefore we used either male mice carrying the mutated allele (who are hemizygous) or homozygous females, both of which have been previously shown to be functionally null for the AT2 receptor (T. Ichiki et al., Nature 377, 748 (1995)). Mice were sacrificed with an inhalation overdose of halothane (Sigma-Aldrich, St. Louis). Mice underwent immediate laparotomy, descending abdominal aortic transection, and PBS (pH 7.4) was infused through the right and left ventricles to flush out the blood. Mice that were analyzed for Western Blot analysis had their proximal ascending aortas (root to right brachiocephalic trunk) immediately dissected out, flash frozen in liquid nitrogen and stored at −80d until further processing. Mice that were analyzed for aortic histology had latex injected under low pressure into the left ventricular apex until it was visible in the descending abdominal aorta. Mice that were analyzed for lung histology had their trachea intubated with a 20-gauge blunted needle, and 0.5% agar was infused under a low and constant pressure to gradually inflate the lungs. […]\n(§2) Mouse aortic root and ascending aortas (aortic root excluding the aortic valve to origin of right brachiocephalic trunk) were harvested, snap-frozen in liquid nitrogen and stored at −80° C. until processed. […] Equal protein loading of samples was determined by a protein assay (BioRad, CA), and confirmed by probing with antibodies against β-Actin or GAPDH (Sigma, Mo.). […]"}, "WT mice": {"tested_on": "WT mice", "assay": "Aortic root growth by echocardiography, 7 months of treatment, WT littermates", "assay_type": "in vivo", "experimental": "A head-to-head comparison of ACEi versus ARBs was performed. Fbn1^C1039G/+ mice and WT littermates were treated with hemodynamically equivalent doses (FIG. 8) of either the ACEi enalapril (10 to 15 mg/kg of body weight per day) or the ARB losartan (40 to 60 mg/kg per day) (R. D. Patten et al., Clin. Sci 104, 109 (2003)), beginning at 8 weeks of age, and were assessed with serial echocardiograms. […] It is noteworthy that losartan reduced aortic root growth in Fbn1^C1039G/+ mice, but had no effect in WT littermates (P=0.27). […] Whether AT2 signaling is needed to achieve losartan's full therapeutic benefit was assessed. […]\n(§3) All mice were cared for under strict compliance with the Animal Care and Use Committee of the Johns Hopkins University School of Medicine. […] Mice that were analyzed for Western Blot analysis had their proximal ascending aortas (root to right brachiocephalic trunk) immediately dissected out, flash frozen in liquid nitrogen and stored at −80d until further processing. Mice that were analyzed for aortic histology had latex injected under low pressure into the left ventricular apex until it was visible in the descending abdominal aorta. Mice that were analyzed for lung histology had their trachea intubated with a 20-gauge blunted needle, and 0.5% agar was infused under a low and constant pressure to gradually inflate the lungs. […]"}, "AT2KO:Fbn1^C1039G/+ mice [1]": {"tested_on": "AT2KO:Fbn1^C1039G/+ mice", "assay": "Aortic root growth by echocardiography, 7 months of treatment, MFS mice lacking AT2", "assay_type": "in vivo", "experimental": "A head-to-head comparison of ACEi versus ARBs was performed. Fbn1^C1039G/+ mice and WT littermates were treated with hemodynamically equivalent doses (FIG. 8) of either the ACEi enalapril (10 to 15 mg/kg of body weight per day) or the ARB losartan (40 to 60 mg/kg per day) (R. D. Patten et al., Clin. Sci 104, 109 (2003)), beginning at 8 weeks of age, and were assessed with serial echocardiograms. […] It is noteworthy that losartan reduced aortic root growth in Fbn1^C1039G/+ mice, but had no effect in WT littermates (P=0.27). […] Whether AT2 signaling is needed to achieve losartan's full therapeutic benefit was assessed. AT2KO:Fbn1^C1039G/+ mice were treated with losartan from 8 weeks of age and followed by serial echocardiography until they were killed at 9 months of age (FIG. 2C).\nas §3, with “Medicine. The Fbn1^C1039G/+ and AT2KO lines were maintained n a pure C57BL/6 background (backcrossed for greater than 9 generations), allowing for valid comparisons.” for “Medicine.”\nMice were started on medication at 8 weeks of age and continued for 7 months. […] Blood pressures were analyzed by taking 20 tail cuff blood pressures per day over 5 days in each mouse to habituate the mice to the tail cuff pressure system, and the blood pressures obtained on the last day were averaged. At least 4 mice for each treatment group were analyzed. […]"}, "Smad2": {"tested_on": "Smad2", "assay": "Western blot of aortic root and proximal ascending aorta: Smad2 activation (Examples 4-5)", "assay_type": "in vivo, mice", "text": "All mice were cared for under strict compliance with the Animal Care and Use Committee of the Johns Hopkins University School of Medicine. The Fbn1^C1039G/+ and AT2KO lines were maintained n a pure C57BL/6 background (backcrossed for greater than 9 generations), allowing for valid comparisons. In order to further accommodate the potential for temporal- or background-specified variation, all comparisons were made between contemporary littermates when possible. The AT21C0 mice were obtained as a generous gift from Dr. Inagami (T. Ichiki et al., Nature 377, 748 (1995)). The Agtr2 gene resides on the X chromosome and therefore we used either male mice carrying the mutated allele (who are hemizygous) or homozygous females, both of which have been previously shown to be functionally null for the AT2 receptor (T. Ichiki et al., Nature 377, 748 (1995)). Mice were sacrificed with an inhalation overdose of halothane (Sigma-Aldrich, St. Louis). Mice underwent immediate laparotomy, descending abdominal aortic transection, and PBS (pH 7.4) was infused through the right and left ventricles to flush out the blood. Mice that were analyzed for Western Blot analysis had their proximal ascending aortas (root to right brachiocephalic trunk) immediately dissected out, flash frozen in liquid nitrogen and stored at −80d until further processing. Mice that were analyzed for aortic histology had latex injected under low pressure into the left ventricular apex until it was visible in the descending abdominal aorta. Mice that were analyzed for lung histology had their trachea intubated with a 20-gauge blunted needle, and 0.5% agar was infused under a low and constant pressure to gradually inflate the lungs. The trachea was then tied-off using vicryl and the needle was removed. Mice were fixed for 24 hours in 10% buffered formalin, after which the heart, aorta and lungs were removed and stored in 70% ethanol.\nMouse aortic root and ascending aortas (aortic root excluding the aortic valve to origin of right brachiocephalic trunk) were harvested, snap-frozen in liquid nitrogen and stored at −80° C. until processed. Protein was extracted using the reagents and protocol from a Total Protein Extraction Kit containing protease inhibitor and Protein Phosphatase Inhibitor Cocktail (Millipore, MA). Aortas were homogenized using a pellet pestle motor (Kimble-Kontes, NJ) as per the extraction kit protocol. […] Equal protein loading of samples was determined by a protein assay (BioRad, CA), and confirmed by probing with antibodies against β-Actin or GAPDH (Sigma, Mo.). […] Blots were then washed in PBS-T, developed using SuperSignalWest HRP substrate (Pierce Scientific, IL), exposed to BioMax Scientific Imaging Film (Sigma, Mo.) and quantified using Imaged analysis software (NIH, MD)."}, "JNK1": {"tested_on": "JNK1", "assay": "Western blot of proximal ascending aorta: JNK1 activation (Examples 4-5)", "assay_type": "in vivo, mice", "text": "as §1, §2"}, "AT2KO:Fbn1^C1039G/+ mice [2]": {"tested_on": "AT2KO:Fbn1^C1039G/+ mice", "assay": "Systolic blood pressure by tail cuff, MFS mice lacking AT2", "assay_type": "in vivo", "conditions": "AT2KO:Fbn1^C1039G/+ versus Fbn1^C1039G/+ mice, FIG. 8", "experimental": "Mice were started on medication at 8 weeks of age and continued for 7 months. Losartan was dissolved in drinking water and filtered to reach a concentration of 0.6 g/L, giving an estimated daily dose of 40-60 mg/kg/day. Enalapril was dissolved in drinking water and filtered to reach a final concentration of 0.15 g/L, giving an estimated daily dose of 10-15 mg/kg/day. […] Spironolactone was dissolved in drinking water and filtered to give an estimated dose of 20 mg/kg/day, a dose previously shown to have in-vivo phenotypic benefit in cardiovascular disease states (S. Sakurabayashi-Kitade et al., Atherosclerosis 206, 54 (2009)). Placebo-treated animals received regular drinking water. Blood pressures were analyzed by taking 20 tail cuff blood pressures per day over 5 days in each mouse to habituate the mice to the tail cuff pressure system, and the blood pressures obtained on the last day were averaged. At least 4 mice for each treatment group were analyzed."}, "[3]": {"conditions": "treated AT2KO:Fbn1^C1039G/+ versus treated Fbn1^C1039G/+ mice, FIG. 14"}}, "note": "Entries after “also recorded” stand apart in the source; their conditions may differ."}
{"molecule": "CCCCc1nc(Cl)c(CO)n1Cc1ccc(-c2ccccc2-c2nn[nH]n2)cc1", "note": "[losartan]", "values": [{"measurement": "ERK1/2 activation", "setting": "ERK1/2; AT2KO:Fbn1^C1039G/+ mice, FIG. 10C and 14", "value": "ability to inhibit ERK1/2 activation is lost; also recorded: reduced ability to lower ERK1/2 activation; also recorded: loses its ability to decrease ERK1/2 activation"}, {"measurement": "ERK1/2 activation", "setting": "ERK1/2; Fbn1^C1039G/+ mice, FIG. 10B", "value": "reduced it to WT levels; also recorded: reduced ERK1/2 activation to levels indistinguishable from WT littermates"}, {"measurement": "Aortic root growth over 7 months of treatment", "setting": "WT mice; WT littermates", "value": "had no effect"}, {"measurement": "Final absolute aortic root diameter", "setting": "WT mice; WT mice, 7 months of treatment, FIG. 2B, mean +/- 2 SEM", "value": "1.77+/−0.15 mm"}, {"measurement": "Aortic root growth over 7 months of treatment", "setting": "AT2KO:Fbn1^C1039G/+ mice [1]; AT2KO:Fbn1^C1039G/+ mice", "value": "modest reduction in aortic root growth; also recorded: diminished effectiveness"}, {"measurement": "Final absolute aortic root diameter", "setting": "AT2KO:Fbn1^C1039G/+ mice [1]; AT2KO:Fbn1^C1039G/+ mice, 7 months of treatment, FIG. 2C, mean +/- 2 SEM", "value": "2.06+/−0.07 mm"}, {"measurement": "Decrease in aortic root growth in treated AT2KO:Fbn1^C1039G/+ mice relative to that seen in Fbn1^C1039G/+ animals that expressed AT2", "setting": "AT2KO:Fbn1^C1039G/+ mice [1]; losartan from 8 weeks to 9 months of age, P<0.001", "value": 40, "unit": "%"}, {"measurement": "Smad2 activation", "setting": "Smad2; Fbn1^C1039G/+ mice, FIG. 10B", "value": "significantly decreased Smad2 activation"}, {"measurement": "Smad2 activation", "setting": "Smad2; [3]", "value": "no significant change; also recorded: no significant difference"}, {"measurement": "JNK1 activation", "setting": "JNK1; Fbn1^C1039G/+ mice, FIG. 13", "value": "small reduction in JNK1 activation; also recorded: modest reduction in JNK1 activation"}, {"measurement": "JNK1 activation", "setting": "JNK1; [3]", "value": "no significant change; also recorded: no significant difference"}, {"measurement": "Systolic blood pressure", "setting": "AT2KO:Fbn1^C1039G/+ mice [2]", "value": "no difference in blood pressure between the groups; also recorded: lowered blood pressure equally"}]}
